Laboratory results: ChEMBL document CHEMBL5653596, “A novel small molecule met inhibitor induces apoptosis in cells transformed by the oncogenic TPR-MET tyrosine kinase” (Cancer Res, 2003)
Activity calls are given as the source filed them. No cut-off for these calls is given here.

Assays:
[1] = molecular target: T1, Fibroblast growth factor receptor 1 (Homo sapiens, UniProt P11362); experiment: Inhibition of glutathione S-transferase fused FGFR1 (unknown origin) catalytic activity infected in Sf9 cells using poly-Glu-Tyr (4:1) as substrate at 0.02 uM relative to control
Angiopoietin-1 receptor = Angiopoietin-1 receptor (Homo sapiens, UniProt Q02763); experiment: Inhibition of glutathione S-transferase fused Tie2 (unknown origin) catalytic activity infected in Sf9 cells using poly-Glu-Tyr (4:1) as substrate
BaF3 [2] = experiment: Induction of cell cycle arrest in mouse BaF3 cells transfected with TPR-MET genes assessed as cells accumulation at S phase at 0.2 uM by fluorescence-activated cell sorter analysis (reference value: 45.4%); format: functional
BaF3 [3] = experiment: Inhibition of […] phosphorylation of AKT at […] in mouse BaF3 cells transfected with TPR-MET genes at 0.2 to 5 uM by immunoblotting analysis; format: cell-based; settings: dose 0.2-5 µM
BaF3 [4] = experiment: Inhibition of migration of mouse BaF3 cells measured after 4 hrs by spontaneous transwell migration assay; format: functional, cell-based; settings: dose 0.2-5 µM
[5] = molecular target: Hepatocyte growth factor receptor (Mus musculus) (UniProt P16056); experiment: Inhibition of Met autophosphorylation at Tyr361/365/366 in mouse BaF3 cells at 5 uM by immunoblotting analysis; format: cell-based
Chain of Hepatocyte growth factor receptor (Mus musculus) (P16056 whole entry, the tested form may be a part): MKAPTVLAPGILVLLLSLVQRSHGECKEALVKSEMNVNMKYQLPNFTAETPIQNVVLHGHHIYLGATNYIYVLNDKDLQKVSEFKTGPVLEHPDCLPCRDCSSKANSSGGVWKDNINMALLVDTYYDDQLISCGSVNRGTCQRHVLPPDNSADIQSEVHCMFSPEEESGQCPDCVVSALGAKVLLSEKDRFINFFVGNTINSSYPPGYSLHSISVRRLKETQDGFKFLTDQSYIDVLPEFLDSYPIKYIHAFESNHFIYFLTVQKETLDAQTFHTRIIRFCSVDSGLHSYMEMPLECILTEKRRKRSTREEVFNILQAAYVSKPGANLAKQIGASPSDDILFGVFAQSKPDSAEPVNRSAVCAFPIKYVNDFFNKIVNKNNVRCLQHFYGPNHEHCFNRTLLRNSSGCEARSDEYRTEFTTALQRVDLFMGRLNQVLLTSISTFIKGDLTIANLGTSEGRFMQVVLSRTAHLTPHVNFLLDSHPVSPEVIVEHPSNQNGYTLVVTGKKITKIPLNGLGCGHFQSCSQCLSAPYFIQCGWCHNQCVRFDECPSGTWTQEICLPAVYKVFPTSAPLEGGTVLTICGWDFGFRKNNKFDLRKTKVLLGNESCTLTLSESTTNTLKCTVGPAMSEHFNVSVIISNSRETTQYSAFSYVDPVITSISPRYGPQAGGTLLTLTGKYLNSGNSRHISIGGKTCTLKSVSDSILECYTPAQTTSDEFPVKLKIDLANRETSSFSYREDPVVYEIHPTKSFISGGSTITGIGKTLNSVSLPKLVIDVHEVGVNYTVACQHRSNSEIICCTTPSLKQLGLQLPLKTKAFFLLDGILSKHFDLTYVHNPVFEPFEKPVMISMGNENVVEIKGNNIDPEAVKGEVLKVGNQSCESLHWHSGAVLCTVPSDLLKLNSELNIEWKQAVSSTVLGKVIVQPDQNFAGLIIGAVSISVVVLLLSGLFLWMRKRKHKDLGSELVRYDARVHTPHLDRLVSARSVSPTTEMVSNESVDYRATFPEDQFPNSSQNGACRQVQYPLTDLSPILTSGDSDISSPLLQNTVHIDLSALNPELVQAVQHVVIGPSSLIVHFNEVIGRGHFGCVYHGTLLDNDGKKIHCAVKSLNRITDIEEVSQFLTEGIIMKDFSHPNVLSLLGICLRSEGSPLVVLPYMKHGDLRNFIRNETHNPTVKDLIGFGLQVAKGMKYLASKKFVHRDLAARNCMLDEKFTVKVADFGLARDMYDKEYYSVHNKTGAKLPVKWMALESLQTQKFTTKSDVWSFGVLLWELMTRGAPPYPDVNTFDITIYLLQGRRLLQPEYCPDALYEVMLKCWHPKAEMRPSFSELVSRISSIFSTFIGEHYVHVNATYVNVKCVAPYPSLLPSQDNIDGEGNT

[6] = molecular target: Epidermal growth factor receptor (Homo sapiens, UniProt P00533); experiment: Inhibition of glutathione S-transferase fused EGFR (unknown origin) catalytic activity infected in Sf9 cells using poly-Glu-Tyr (4:1) as substrate
BaF3 [7] = experiment: Inhibition of cell growth in mouse BaF3 cells transfected with TPR-MET genes in presence of interleukin 3 at 1 uM by 3-(4,5-dimethylthiazol-2-yl)-2,5-diphenyltetrazolium bromide assay; format: functional, cell-based
BaF3 [8] = experiment: Inhibition of cell growth in mouse BaF3 cells transfected with BCR-ABL genes at 1 uM measured after 18 hrs by 3-(4,5-dimethylthiazol-2-yl)-2,5-diphenyltetrazolium bromide assay; format: functional, cell-based
BaF3 [9] = experiment: Inhibition of cell growth in mouse BaF3 cells transfected with BCR-ABL genes in presence of interleukin 3 at 1 uM measured after 18 hrs by 3-(4,5-dimethylthiazol-2-yl)-2,5-diphenyltetrazolium bromide assay; format: functional, cell-based
BaF3 [10] = experiment: Induction of apoptosis in mouse BaF3 cells transfected with TPR-MET genes assessed as total apoptotic cells at 1 uM measured after 18 hrs by annexin V and propidium iodide staining based flow cytometry assay (reference value: 5%); format: functional
BaF3 [11] = experiment: Induction of apoptosis in mouse BaF3 cells transfected with TPR-MET genes assessed as early apoptotic cells at 1 uM measured after 18 hrs by annexin V and propidium iodide staining based flow cytometry assay (reference value: 2.5%); format: functional
BaF3 [12] = experiment: Inhibition of Serine phosphorylation of AKT at Ser473 in mouse BaF3 cells transfected with TPR-MET genes at 0.2 to 5 uM by immunoblotting analysis; format: cell-based; settings: dose 0.2-5 µM
BaF3 [13] = experiment: Induction of cell cycle arrest in mouse BaF3 cells transfected with TPR-MET genes assessed as cells accumulation at S phase at 5 uM by fluorescence-activated cell sorter analysis (reference value: 45.4%); format: functional
BaF3 [14] = experiment: Inhibition of cell growth in mouse BaF3 cells transfected with TEL-JAK2 genes at 1 uM measured after 18 hrs by 3-(4,5-dimethylthiazol-2-yl)-2,5-diphenyltetrazolium bromide assay; format: functional, cell-based
BaF3 [15] = experiment: Inhibition of Serine phosphorylation of FKHR at Ser256 in mouse BaF3 cells transfected with TPR-MET genes at 0.2 to 5 uM by immunoblotting analysis; format: cell-based; settings: dose 0.2-5 µM
BaF3 [16] = experiment: Inhibition of cell growth in mouse BaF3 cells transfected with TPR-MET genes by 3-(4,5-dimethylthiazol-2-yl)-2,5-diphenyltetrazolium bromide assay; format: functional, cell-based
BaF3 [17] = experiment: Inhibition of migration of mouse BaF3 cells at 1 uM measured after 4 hrs by spontaneous transwell migration assay relative to control; format: functional
[18] = molecular target: Platelet-derived growth factor receptor beta (Homo sapiens, UniProt P09619); experiment: Inhibition of glutathione S-transferase fused PDGFbetaR (unknown origin) catalytic activity infected in Sf9 cells using poly-Glu-Tyr (4:1) as substrate
Chain of Platelet-derived growth factor receptor beta (P09619 whole entry, the tested form may be a part): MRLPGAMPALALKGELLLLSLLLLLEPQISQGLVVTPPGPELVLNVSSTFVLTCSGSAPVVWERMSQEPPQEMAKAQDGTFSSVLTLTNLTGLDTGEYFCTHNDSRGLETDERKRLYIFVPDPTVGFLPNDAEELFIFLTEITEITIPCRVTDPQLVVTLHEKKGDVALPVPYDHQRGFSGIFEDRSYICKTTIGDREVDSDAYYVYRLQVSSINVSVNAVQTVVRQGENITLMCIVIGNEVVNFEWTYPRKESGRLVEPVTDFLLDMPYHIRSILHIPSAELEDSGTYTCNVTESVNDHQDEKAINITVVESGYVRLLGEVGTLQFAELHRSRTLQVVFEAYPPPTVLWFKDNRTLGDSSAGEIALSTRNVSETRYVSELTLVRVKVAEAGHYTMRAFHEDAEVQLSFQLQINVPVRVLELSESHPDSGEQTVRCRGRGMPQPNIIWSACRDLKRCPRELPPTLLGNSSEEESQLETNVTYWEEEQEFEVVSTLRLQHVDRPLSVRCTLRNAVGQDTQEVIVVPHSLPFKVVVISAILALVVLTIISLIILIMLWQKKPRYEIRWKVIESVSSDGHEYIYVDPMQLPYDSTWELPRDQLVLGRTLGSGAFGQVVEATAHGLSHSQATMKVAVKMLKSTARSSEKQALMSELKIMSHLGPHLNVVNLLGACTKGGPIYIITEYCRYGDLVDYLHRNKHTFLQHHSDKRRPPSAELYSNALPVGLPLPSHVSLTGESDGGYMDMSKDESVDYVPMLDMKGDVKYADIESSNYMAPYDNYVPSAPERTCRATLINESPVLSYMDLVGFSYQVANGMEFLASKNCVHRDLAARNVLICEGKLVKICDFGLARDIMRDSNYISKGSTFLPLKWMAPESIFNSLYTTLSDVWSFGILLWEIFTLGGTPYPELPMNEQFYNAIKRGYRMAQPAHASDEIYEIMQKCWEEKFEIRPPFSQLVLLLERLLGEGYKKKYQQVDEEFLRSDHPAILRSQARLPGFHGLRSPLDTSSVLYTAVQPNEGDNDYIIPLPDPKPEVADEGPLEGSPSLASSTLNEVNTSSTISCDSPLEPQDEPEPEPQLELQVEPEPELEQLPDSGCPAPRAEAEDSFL

BaF3 [19] = experiment: Induction of apoptosis in mouse BaF3 cells transfected with TPR-MET genes assessed as viable cells at 1 uM measured after 18 hrs by annexin V and propidium iodide staining based flow cytometry assay (reference value: 93.6%); format: functional; settings: read-out: Activity
[20] = molecular target: T2, Hepatocyte growth factor receptor (Homo sapiens, UniProt P08581); experiment: Inhibition of glutathione S-transferase fused Met (unknown origin) catalytic activity infected in Sf9 cells using poly-Glu-Tyr (4:1) as substrate
T2 sequence (P08581 whole entry, the tested form may be a part): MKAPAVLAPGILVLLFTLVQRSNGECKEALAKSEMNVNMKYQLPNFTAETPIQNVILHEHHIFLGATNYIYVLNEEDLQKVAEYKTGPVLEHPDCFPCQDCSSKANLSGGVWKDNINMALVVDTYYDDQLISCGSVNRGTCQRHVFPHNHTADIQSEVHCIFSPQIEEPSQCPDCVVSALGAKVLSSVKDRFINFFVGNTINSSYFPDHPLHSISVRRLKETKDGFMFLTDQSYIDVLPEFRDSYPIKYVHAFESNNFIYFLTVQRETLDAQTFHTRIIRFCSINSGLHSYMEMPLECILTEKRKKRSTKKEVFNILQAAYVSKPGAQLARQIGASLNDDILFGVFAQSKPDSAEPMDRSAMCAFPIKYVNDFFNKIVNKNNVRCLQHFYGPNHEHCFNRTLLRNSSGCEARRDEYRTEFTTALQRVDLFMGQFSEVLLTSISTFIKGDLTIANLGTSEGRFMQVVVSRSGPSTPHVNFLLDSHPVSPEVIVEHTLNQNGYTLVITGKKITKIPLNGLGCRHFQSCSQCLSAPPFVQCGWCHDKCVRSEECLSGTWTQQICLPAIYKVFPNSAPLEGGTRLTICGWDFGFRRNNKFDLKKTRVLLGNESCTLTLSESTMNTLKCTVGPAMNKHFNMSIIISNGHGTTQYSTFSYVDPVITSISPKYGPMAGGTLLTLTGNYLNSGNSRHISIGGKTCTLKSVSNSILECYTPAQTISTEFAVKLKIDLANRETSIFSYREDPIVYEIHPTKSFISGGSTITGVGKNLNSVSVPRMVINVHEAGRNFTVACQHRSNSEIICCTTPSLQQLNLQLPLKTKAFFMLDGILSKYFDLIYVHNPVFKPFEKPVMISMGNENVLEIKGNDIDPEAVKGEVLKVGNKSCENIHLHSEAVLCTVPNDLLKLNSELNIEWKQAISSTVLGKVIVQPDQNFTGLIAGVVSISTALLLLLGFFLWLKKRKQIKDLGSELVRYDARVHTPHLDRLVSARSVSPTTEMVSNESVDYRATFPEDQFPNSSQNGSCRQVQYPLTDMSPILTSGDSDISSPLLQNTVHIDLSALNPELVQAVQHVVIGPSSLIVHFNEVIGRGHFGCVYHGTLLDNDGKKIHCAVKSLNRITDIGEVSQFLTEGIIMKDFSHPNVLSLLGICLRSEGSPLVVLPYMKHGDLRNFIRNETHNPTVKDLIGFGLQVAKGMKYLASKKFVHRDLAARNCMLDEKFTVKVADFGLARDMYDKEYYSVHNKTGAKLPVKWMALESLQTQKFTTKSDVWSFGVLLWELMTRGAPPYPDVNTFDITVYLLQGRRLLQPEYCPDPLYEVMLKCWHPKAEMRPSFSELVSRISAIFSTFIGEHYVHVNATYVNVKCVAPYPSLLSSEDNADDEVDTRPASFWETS

[21] = molecular target: T2, Hepatocyte growth factor receptor; experiment: Inhibition of HGF-dependent Met (unknown origin) phosphorylation
BaF3 [22] = experiment: Induction of cell cycle arrest in mouse BaF3 cells transfected with TPR-MET genes assessed as cells accumulation at G2/M phase at 5 uM by fluorescence-activated cell sorter analysis (reference value: 12.2%); format: functional
BaF3 [23] = experiment: Induction of apoptosis in mouse BaF3 cells transfected with TPR-MET genes assessed as late apoptotic cells at 1 uM measured after 18 hrs by annexin V and propidium iodide staining based flow cytometry assay (reference value: 3.8%); format: functional
BaF3 [24] = experiment: Reduction in tyrosine phosphorylation of cellular proteins in mouse BaF3 cells transfected with TPR-MET genes by immunoblotting analysis; format: functional, cell-based; settings: dose 0.2-5 µM
NCI-H69 = experiment: Growth inhibition of human NCI-H69 cells in presence of HGF measured after 72 hrs by 3-(4,5 dimethylthiazol-2-yl)-2,5-diphenyltetrazolium bromide assay; format: functional, cell-based
BaF3 [25] = experiment: Induction of cell cycle arrest in mouse BaF3 cells transfected with TPR-MET genes assessed as cells accumulation at G2/M phase at 1 uM by fluorescence-activated cell sorter analysis (reference value: 12.2%); format: functional
BaF3 [26] = experiment: Induction of cell cycle arrest in mouse BaF3 cells transfected with TPR-MET genes assessed as cells accumulation at G1 phase at 5 uM by fluorescence-activated cell sorter analysis (reference value: 42.4%); format: functional
BaF3 [27] = experiment: Induction of cell cycle arrest in mouse BaF3 cells transfected with TPR-MET genes assessed as cells accumulation at G1 phase at 0.2 uM by fluorescence-activated cell sorter analysis (reference value: 42.4%); format: functional
[28] = molecular target: T1, Fibroblast growth factor receptor 1; experiment: Inhibition of glutathione S-transferase fused FGFR1 (unknown origin) catalytic activity infected in Sf9 cells using poly-Glu-Tyr (4:1) as substrate
BaF3 [29] = experiment: Inhibition of cell growth in mouse BaF3 cells in presence of interleukin 3 at 1 uM measured after 3 days by 3-(4,5-dimethylthiazol-2-yl)-2,5-diphenyltetrazolium bromide assay; format: functional, cell-based; settings: time 3.0 day
BaF3 [30] = experiment: Inhibition of cell growth in mouse BaF3 cells transfected with TPR-MET genes at 1 uM measured after 3 days by 3-(4,5-dimethylthiazol-2-yl)-2,5-diphenyltetrazolium bromide assay; format: functional; settings: BaF3, 72 h, time 3 day
BaF3 [31] = experiment: Induction of apoptosis in mouse BaF3 cells transfected with TPR-MET genes assessed as necrotic cells at 1 uM measured after 18 hrs by annexin V and propidium iodide staining based flow cytometry assay (reference value: 0.1%); format: functional
BaF3 [32] = experiment: Inhibition of cell growth in mouse BaF3 cells transfected with TPR-MET genes at 0.01 to 10 uM by 3-(4,5-dimethylthiazol-2-yl)-2,5-diphenyltetrazolium bromide assay; format: functional, cell-based; settings: dose 0.01-10 µM
BaF3 [33] = experiment: Induction of cell cycle arrest in mouse BaF3 cells transfected with TPR-MET genes assessed as cells accumulation at G2/M phase at 0.2 uM by fluorescence-activated cell sorter analysis (reference value: 12.2%); format: functional
[34] = molecular target: Hepatocyte growth factor receptor (Mus musculus) (UniProt P16056); experiment: Inhibition of Met autophosphorylation at Tyr480 in mouse BaF3 cells at 5 uM by immunoblotting analysis; format: cell-based
[35] = molecular target: Vascular endothelial growth factor receptor 2 (Homo sapiens, UniProt P35968); experiment: Inhibition of glutathione S-transferase fused Flk1 (unknown origin) catalytic activity infected in Sf9 cells using poly-Glu-Tyr (4:1) as substrate
BaF3 [36] = experiment: Inhibition of migration of mouse BaF3 cells at 5 uM measured after 4 hrs by spontaneous transwell migration assay relative to control; format: functional
BaF3 [37] = experiment: Inhibition of cell growth in mouse BaF3 cells transfected with BCR-ABL genes in presence of interleukin 3 at 1 uM measured after 3 days by 3-(4,5-dimethylthiazol-2-yl)-2,5-diphenyltetrazolium bromide assay; format: functional, cell-based; settings: time 3.0 day
BaF3 [38] = experiment: Induction of cell cycle arrest in mouse BaF3 cells transfected with TPR-MET genes assessed as cells accumulation at G1 phase at 1 uM by fluorescence-activated cell sorter analysis (reference value: 42.4%); format: functional
BaF3 [39] = experiment: Induction of cell cycle arrest in mouse BaF3 cells transfected with TPR-MET genes assessed as cells accumulation at S phase at 1 uM by fluorescence-activated cell sorter analysis (reference value: 45.4%); format: functional
BaF3 [40] = experiment: Inhibition of cell growth in mouse BaF3 cells transfected with TEL-PDGFbetaR genes at 1 uM measured after 18 hrs by 3-(4,5-dimethylthiazol-2-yl)-2,5-diphenyltetrazolium bromide assay; format: functional, cell-based
[41] = molecular target: Hepatocyte growth factor receptor (Mus musculus) (UniProt P16056); experiment: Inhibition of Met autophosphorylation at Tyr496 in mouse BaF3 cells at 5 uM by immunoblotting analysis; format: cell-based
BaF3 [42] = experiment: Inhibition of cell growth in mouse BaF3 cells transfected with TEL-ABL genes at 1 uM measured after 18 hrs by 3-(4,5-dimethylthiazol-2-yl)-2,5-diphenyltetrazolium bromide assay; format: functional, cell-based
BaF3 [43] = experiment: Inhibition of cell growth in mouse BaF3 cells transfected with TPR-MET genes in presence of interleukin 3 at 1 uM measured after 3 days by 3-(4,5-dimethylthiazol-2-yl)-2,5-diphenyltetrazolium bromide assay; format: functional, cell-based; settings: time 3.0 day
NCI-H345 = experiment: Growth inhibition of human NCI-H345 cells in presence of HGF measured after 72 hrs by 3-(4,5 dimethylthiazol-2-yl)-2,5-diphenyltetrazolium bromide assay; format: functional, cell-based
[44] = molecular target: Cyclin-dependent kinase 2 (Homo sapiens, UniProt P24941); experiment: Inhibition of glutathione S-transferase fused CDK2 (unknown origin) catalytic activity infected in Sf9 cells using poly-Glu-Tyr (4:1) as substrate
BaF3 [45] = experiment: Inhibition of Serine phosphorylation of GSK3beta at Ser21/9 in mouse BaF3 cells transfected with TPR-MET genes at 0.2 to 5 uM by immunoblotting analysis; format: cell-based; settings: dose 0.2-5 µM
[46] = molecular target: Proto-oncogene tyrosine-protein kinase Src (Homo sapiens, UniProt P12931); experiment: Inhibition of glutathione S-transferase fused c-Src (unknown origin) catalytic activity infected in Sf9 cells using poly-Glu-Tyr (4:1) as substrate
Chain of Proto-oncogene tyrosine-protein kinase Src (P12931 2-536 limits assumed): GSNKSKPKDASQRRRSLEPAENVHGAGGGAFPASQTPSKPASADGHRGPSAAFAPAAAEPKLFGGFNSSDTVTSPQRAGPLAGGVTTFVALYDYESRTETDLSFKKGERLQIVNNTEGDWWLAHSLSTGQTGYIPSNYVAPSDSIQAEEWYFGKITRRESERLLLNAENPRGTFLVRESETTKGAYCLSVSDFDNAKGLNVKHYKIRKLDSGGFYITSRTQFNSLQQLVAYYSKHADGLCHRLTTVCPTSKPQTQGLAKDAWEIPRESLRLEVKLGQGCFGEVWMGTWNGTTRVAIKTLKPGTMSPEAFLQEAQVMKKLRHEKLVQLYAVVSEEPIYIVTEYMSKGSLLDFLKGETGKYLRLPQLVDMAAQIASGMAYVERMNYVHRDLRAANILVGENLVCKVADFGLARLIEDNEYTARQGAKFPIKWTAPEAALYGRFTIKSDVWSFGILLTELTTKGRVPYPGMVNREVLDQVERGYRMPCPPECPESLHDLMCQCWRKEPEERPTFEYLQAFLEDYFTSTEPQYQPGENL

## Cc1[nH]c(/C=C2/C(=O)Nc3ccc(S(=O)(=O)N(C)c4cccc(Cl)c4)cc32)c(C)c1C(=O)N1CCN(C)CC1
[1]
  inhibition: 2%
Angiopoietin-1 receptor
  IC50: > 100 µM
BaF3 [2]
  Activity: 40%
BaF3 [3]
  inhibition: Active
BaF3 [4]
  inhibition: Dose-Dependent Effect
[5]
  inhibition: Active
[6]
  IC50: > 100 µM
BaF3 [7]
  inhibition: Active
BaF3 [8]
  inhibition: inactive
BaF3 [9]
  inhibition: inactive
BaF3 [10]
  Activity: 24%
BaF3 [11]
  Activity: 11.3%
BaF3 [12]
  inhibition: Active
BaF3 [13]
  Activity: 21.1%
BaF3 [14]
  inhibition: inactive
BaF3 [15]
  inhibition: Active
BaF3 [16]
  IC50: < 3 µM
BaF3 [17]
  inhibition at 1 µM: 44.8%
[18]
  IC50: > 20 µM
BaF3 [19]
  viability at 1 µM: 70.3%
[20]
  IC50: 0.02 µM
[21]
  IC50: 1 µM
BaF3 [22]
  Activity: 8.3%
BaF3 [23]
  Activity: 17.2%
BaF3 [24]
  inhibition: Dose-Dependent Effect
NCI-H69
  inhibition: Dose-Dependent Effect
BaF3 [25]
  Activity: 6%
BaF3 [26]
  Activity: 13.4%
BaF3 [27]
  Activity: 46.6%
[28]
  IC50: 9.7 µM
BaF3 [29]
  inhibition: inactive
BaF3 [30]
  inhibition at 1 µM: 100%
BaF3 [31]
  Activity: 1.1%
BaF3 [32]
  inhibition: Dose-Dependent Effect
BaF3 [33]
  Activity: 13.4%
[34]
  inhibition: Active
[35]
  IC50: 1.3 µM
BaF3 [36]
  inhibition at 5 µM: 80%
BaF3 [37]
  inhibition: inactive
BaF3 [38]
  Activity: 40%
BaF3 [39]
  Activity: 29.8%
BaF3 [40]
  inhibition: inactive
[41]
  inhibition: Active
BaF3 [42]
  inhibition: inactive
BaF3 [43]
  inhibition: inactive
NCI-H345
  inhibition: Dose-Dependent Effect
[44]
  IC50: > 10 µM
BaF3 [45]
  inhibition: Active
[46]
  IC50: > 10 µM
